Laboratory results as given in ChEMBL document CHEMBL3046910, “Synthesis and pharmacological evaluation of antioxidant chalcone derivatives of 2(3H)-benzoxazolones” (Med Chem Res, 2009).

Legend:
Assay type in all cases: functional
[1] = Antioxidant activity assessed as inhibition of copper-mediated LDL oxidation by FPLC method
[2] = Antioxidant activity against copper-mediated LDL oxidation assessed as oxidized LDL type D level at 3 x 10 '-6 M by FPLC method
[3] = Antioxidant activity assessed as inhibition of copper-mediated LDL oxidation at 3 x 10 '-6 M by FPLC method; conditions: TDE = time-dependent effect
Oryctolagus cuniculus [4] = assay: Antioxidant activity against copper-induced LDL oxidation in Watanabe Oryctolagus cuniculus (rabbit) assessed as time duration of protection at 50 mg/kg, po administered as single dose
[5] = Antioxidant activity against copper-mediated LDL oxidation assessed as native LDL type B level at 3 x 10 '-6 M by FPLC method
[6] = Antioxidant activity assessed as inhibition of copper-mediated LDL oxidation by FPLC method relative to probucol
[7] = Antioxidant activity against copper-mediated LDL oxidation assessed as oxidized LDL type C level at 3 x 10 '-6 M by FPLC method
[8] = Antioxidant activity against copper-mediated LDL oxidation assessed as oxidized LDL type E level at 3 x 10 '-5 M by FPLC method
[9] = Antioxidant activity against copper-mediated LDL oxidation assessed as oxidized LDL type D level at 3 x 10 '-5 M by FPLC method
Oryctolagus cuniculus [10] = assay: Antioxidant activity against copper-induced LDL oxidation in Watanabe Oryctolagus cuniculus (rabbit) assessed as time duration of protection at 250 mg/kg, po administered as single dose

Compound	Activity [1]	IC50 [1]	Activity [2]	Activity [3]	Time (Oryctolagus cuniculus [4])	Activity [5]	Ratio [6]	Activity [7]	Activity [8]	Activity [9]	Time (Oryctolagus cuniculus [10])
CC1/C(=C\c2cc(C(C)(C)C)c(O)c(C(C)(C)C)c2)C(=O)c2cc3oc(=O)n(C)c3cc21 (configuration not stated)	Dose-dependent effect	3 µM	8%	tde	48 h	84%	10	8%			
CC(C)(Sc1cc(C(C)(C)C)c(O)c(C(C)(C)C)c1)Sc1cc(C(C)(C)C)c(O)c(C(C)(C)C)c1 [PROBUCOL]		30 µM							52%	48%	48 h
